# Assay results: publication PMC10751545 (Science (New York, N.Y.), 2023)
# Like-named read-outs stand apart in the source and are kept apart here.
# Legend:
# [1] = molecular target: T1, GPR158 (Homo sapiens, UniProt Q5T848); test: BRET-based cAMP biosensor screen in HEK293 cells expressing GPR158; format: cell-based; settings: for cAMP change in cells expressing GPR158 relative to non-transfected cells: BRET cAMP biosensor
# T1 sequence (Q5T848 24-1215): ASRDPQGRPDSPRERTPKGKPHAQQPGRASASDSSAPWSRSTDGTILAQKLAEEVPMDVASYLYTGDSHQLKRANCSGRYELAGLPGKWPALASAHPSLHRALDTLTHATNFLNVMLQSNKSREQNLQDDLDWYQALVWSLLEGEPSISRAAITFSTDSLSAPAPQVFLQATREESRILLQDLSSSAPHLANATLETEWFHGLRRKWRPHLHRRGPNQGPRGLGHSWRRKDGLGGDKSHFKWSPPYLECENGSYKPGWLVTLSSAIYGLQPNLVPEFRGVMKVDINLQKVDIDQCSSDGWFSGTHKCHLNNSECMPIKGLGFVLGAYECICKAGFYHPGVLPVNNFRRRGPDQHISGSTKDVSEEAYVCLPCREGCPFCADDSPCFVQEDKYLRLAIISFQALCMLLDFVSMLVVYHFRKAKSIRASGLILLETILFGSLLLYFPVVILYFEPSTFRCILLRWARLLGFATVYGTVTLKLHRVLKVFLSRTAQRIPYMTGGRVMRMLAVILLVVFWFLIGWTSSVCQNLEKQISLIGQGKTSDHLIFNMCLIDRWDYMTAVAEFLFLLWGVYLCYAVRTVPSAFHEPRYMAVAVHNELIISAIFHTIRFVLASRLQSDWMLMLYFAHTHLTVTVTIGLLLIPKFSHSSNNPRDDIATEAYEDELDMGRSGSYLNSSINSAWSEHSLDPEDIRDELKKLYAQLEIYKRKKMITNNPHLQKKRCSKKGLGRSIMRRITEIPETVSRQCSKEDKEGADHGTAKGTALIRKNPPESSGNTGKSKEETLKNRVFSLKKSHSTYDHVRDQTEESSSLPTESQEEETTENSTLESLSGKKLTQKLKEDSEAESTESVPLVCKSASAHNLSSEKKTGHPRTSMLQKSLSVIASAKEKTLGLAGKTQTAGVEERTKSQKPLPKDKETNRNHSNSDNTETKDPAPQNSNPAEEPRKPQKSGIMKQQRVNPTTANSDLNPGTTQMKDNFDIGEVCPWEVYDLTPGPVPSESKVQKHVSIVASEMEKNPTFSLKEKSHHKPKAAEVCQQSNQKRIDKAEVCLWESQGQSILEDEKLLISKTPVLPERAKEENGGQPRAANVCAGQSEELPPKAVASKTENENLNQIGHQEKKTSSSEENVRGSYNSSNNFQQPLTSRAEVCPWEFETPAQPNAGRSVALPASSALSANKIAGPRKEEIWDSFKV
# [2] = molecular target: T2, GPR158-RGS7/Gβ5 complex (Homo sapiens, UniProt Q5T848); test: BRET-based GAP assay; format: cell-based
# T2 sequence (Q5T848 24-1215): T1 sequence (Q5T848 24-1215)
# T2 sequence (P49802 1-495 partner): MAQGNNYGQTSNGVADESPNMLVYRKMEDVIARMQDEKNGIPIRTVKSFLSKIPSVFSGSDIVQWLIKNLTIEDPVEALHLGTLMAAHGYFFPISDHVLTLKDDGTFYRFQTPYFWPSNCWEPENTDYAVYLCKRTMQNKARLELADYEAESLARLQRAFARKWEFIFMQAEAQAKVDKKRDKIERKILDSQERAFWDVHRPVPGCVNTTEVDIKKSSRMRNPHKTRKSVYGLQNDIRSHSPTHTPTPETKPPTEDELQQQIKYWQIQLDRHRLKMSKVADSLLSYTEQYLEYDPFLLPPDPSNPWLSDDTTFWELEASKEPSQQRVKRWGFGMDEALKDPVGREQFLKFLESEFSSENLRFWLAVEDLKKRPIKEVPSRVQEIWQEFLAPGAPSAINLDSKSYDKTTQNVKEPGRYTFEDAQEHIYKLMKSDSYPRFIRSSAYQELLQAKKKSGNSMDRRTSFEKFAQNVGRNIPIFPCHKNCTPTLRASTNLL
# T2 sequence (O14775 1-395 partner): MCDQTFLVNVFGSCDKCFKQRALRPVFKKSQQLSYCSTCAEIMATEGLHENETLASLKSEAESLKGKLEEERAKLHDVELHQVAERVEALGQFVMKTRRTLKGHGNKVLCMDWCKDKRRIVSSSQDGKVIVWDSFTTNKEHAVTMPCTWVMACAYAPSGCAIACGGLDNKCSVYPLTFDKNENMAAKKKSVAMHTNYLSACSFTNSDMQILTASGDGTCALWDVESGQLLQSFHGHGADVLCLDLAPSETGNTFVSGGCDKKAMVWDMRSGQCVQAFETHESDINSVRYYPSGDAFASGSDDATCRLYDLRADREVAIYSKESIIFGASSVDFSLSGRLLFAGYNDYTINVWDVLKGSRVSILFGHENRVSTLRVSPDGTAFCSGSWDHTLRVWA
# [3] = molecular target: T1, GPR158; test: G protein activation by GPR158; format: cell-based; settings: any G proteins tested
# [4] = molecular target: T1, GPR158; test: Binding competition, displacement of [3H]-glycine bound to GPR158
# [5] = test system: layer II-III neurons in the prelimbic cortex; test: Slice electrophysiology, intrinsic excitability of cortical neurons; format: cell-based, mice
# [6] = molecular target: T1, GPR158
# [7] = molecular target: T1, GPR158; remark: listed apart in the source
# [8] = molecular target: T1, GPR158; remark: listed apart in the source
# [9] = test system: GPR158 R173A, E271A, and Y269A mutants
smiles,measurement,setting,value
NCCS(=O)(=O)O [taurine],effect on GPR158-mediated suppression of cAMP compared directly with glycine,[1],weaker than the effect of glycine
same,cAMP change in cells expressing GPR158 relative to non-transfected cells,[1],significant decrease in cAMP levels
same,IC50,[2],~6 µM
same,activation of G proteins by GPR158,[3],no significant activation
same,IC50,[4],~6 µM
same,affinity relative to glycine,[4]; competition with [3H]-glycine,two-fold lower affinity
same,excitability (neuronal firing) of layer II-III neurons,[5]; taurine,small effects on neuronal firing
NCC(=O)O [glycine],cAMP change in cells expressing GPR158 relative to non-transfected cells,[1],significant decrease in cAMP
same,"effect on Gαo deactivation, GPR158 co-expressed with RGS7/Gβ5",[2]; 100μM,significantly decelerated Gαo deactivation
same,effect on baseline or RGS7/Gβ5-assisted Gαo deactivation without GPR158,"[2]; cells without GPR158, 100μM",no effect
same,activation of G proteins by GPR158,[3],no significant activation
same,IC50,"[4]; read-out: IC50, displacement of [3H]-glycine bound to GPR158",~3 µM
same,resting membrane potential,[5]; layer II-III neurons,without changes
same,amount of current necessary to elicit the first action potential (rheobase),"[5]; layer II-III neurons, glycine 1mM",decreasing
same,number of action potentials,"[5]; layer II-III neurons, glycine 1mM, synaptic blockade",significantly increased
same,intrinsic excitability of layer V neurons,"[5]; layer V neurons, which do not express GPR158",did not produce any changes
same,excitability of layer II-III neurons in Gpr158 KO mice,"[5]; prefrontal cortex, Gpr158 KO mice, glycine 1mM",failed to alter excitability
same,cAMP change in cells lacking GPR158,"[6]; U87 glioblastoma cells lacking GPR158, glycine 100μM",No glycine-induced changes in cAMP
same,cAMP change in cells expressing GPR158,"[6]; U87 glioblastoma cells, 10μM forskolin, glycine 100μM",cAMP decrease
same,β-arrestin recruitment to GPR158,[7],no significant response
same,Kd,"[8]; read-out: Kd of GPR158 for glycine, Scatchard analysis, membranes containing GPR158",~3 µM
"NCC(=O)O [[^3H]-glycine, reference compound]",binding to GPR158-expressing cells,"[8]; HEK293 cells expressing GPR158, across concentrations",significant binding
same,[3H]-glycine binding to mutants,[9],near complete loss
